The source of these data is patent publication US8377884B2, “Variants of C-type natriuretic peptides” (Biomarin Pharmaceutical Inc., priority 2007, dated 2013).

The assay addresses T1, NPR-B (Mus musculus, UniProt Q6VVW5).
T1 construct: Murine NIH3T3 cells express endogenously the CNP signaling receptor, NPR-B; endogenous in cells; host or cells: NIH3T3 (murine fibroblasts)
T1 sequence (Q6VVW5 17-1047): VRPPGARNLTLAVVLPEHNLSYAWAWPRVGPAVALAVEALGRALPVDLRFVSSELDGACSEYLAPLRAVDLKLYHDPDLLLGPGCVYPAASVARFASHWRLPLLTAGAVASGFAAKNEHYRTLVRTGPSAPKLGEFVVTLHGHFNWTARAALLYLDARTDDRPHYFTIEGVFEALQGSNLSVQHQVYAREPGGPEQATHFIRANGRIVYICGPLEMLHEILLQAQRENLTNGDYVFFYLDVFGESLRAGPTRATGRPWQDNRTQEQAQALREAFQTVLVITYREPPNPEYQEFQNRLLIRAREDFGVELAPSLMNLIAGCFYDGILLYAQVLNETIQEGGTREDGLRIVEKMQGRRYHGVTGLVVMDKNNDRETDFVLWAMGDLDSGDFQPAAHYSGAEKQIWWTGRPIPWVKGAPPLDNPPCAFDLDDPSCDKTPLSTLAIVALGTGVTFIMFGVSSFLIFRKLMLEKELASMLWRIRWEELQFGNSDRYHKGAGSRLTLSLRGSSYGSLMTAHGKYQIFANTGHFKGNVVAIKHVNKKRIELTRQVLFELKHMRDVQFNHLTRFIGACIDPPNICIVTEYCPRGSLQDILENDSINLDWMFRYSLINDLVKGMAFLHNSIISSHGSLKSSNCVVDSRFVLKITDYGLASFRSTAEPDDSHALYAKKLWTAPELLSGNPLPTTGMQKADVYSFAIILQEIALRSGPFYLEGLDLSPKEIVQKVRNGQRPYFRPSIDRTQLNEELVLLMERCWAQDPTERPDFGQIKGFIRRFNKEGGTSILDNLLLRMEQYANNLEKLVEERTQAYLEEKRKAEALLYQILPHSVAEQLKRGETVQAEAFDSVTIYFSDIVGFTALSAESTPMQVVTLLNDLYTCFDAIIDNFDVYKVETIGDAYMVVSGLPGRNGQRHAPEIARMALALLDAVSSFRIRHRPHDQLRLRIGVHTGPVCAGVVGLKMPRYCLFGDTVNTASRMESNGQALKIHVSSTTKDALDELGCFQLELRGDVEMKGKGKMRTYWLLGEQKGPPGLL
In words: Stimulation of cGMP production in NIH3T3 cells. Particulars: for cGMP response relative to 1 uM CNP22 (%) at 0.01 µM: read-out: cGMP Response rel. to 1 uM CNP22, 10 nM; for cGMP response relative to 1 uM CNP22 (%) at 1 µM: read-out: cGMP Response rel. to 1 uM CNP22, 1 uM. Format: cell-based, Murine.

The mark [1] stands for this setting: NIH3T3 cells, 10 nM natriuretic peptide, normalized to cell number and cGMP production with 1 uM wtCNP22.
Where [2] appears, read: NIH3T3 cells, 1 uM natriuretic peptide, normalized to cell number and cGMP production with 1 uM wtCNP22.

Where two headings read alike, the source gives them in different places. Bridge positions count the residues as written; N and C are the ends. Ends that are not written are not given here. Peptide text beside a SMILES is read from it. PEO12 = monodispersed PEO, 0.6 kDa

For the molecule `CC[C@H](C)[C@@H]1NC(=O)[C@H](CCCNC(=N)N)NC(=O)[C@H](CC(=O)O)NC(=O)[C@H](CC(C)C)NC(=O)[C@H](CCCCN)NC(=O)[C@H](CC(C)C)NC(=O)CNC(=O)[C@H](Cc2ccccc2)NC(=O)[C@@H](NC(=O)CNC(=O)[C@H](CCCNC(=N)N)NC(=O)[C@H](CO)NC(=O)[C@H](CC(C)C)NC(=O)CNC(=O)[C@H](CCC(N)=O)NC(=O)[C@H](CCC(N)=O)NC(=O)[C@H](CC(N)=O)NC(=O)[C@H](C)NC(=O)CNC(=O)[C@H](CO)NC(=O)[C@H](CCC(N)=O)NC(=O)[C@@H](NC(=O)CNC(=O)[C@H](CO)NC(=O)[C@H](CO)NC(=O)[C@H](Cc2c[nH]cn2)NC(=O)[C@@H](NC(=O)[C@H](CCC(N)=O)NC(=O)CN)[C@@H](C)O)[C@@H](C)O)CSSC[C@@H](C(=O)O)NC(=O)CNC(=O)[C@H](CC(C)C)NC(=O)CNC(=O)[C@H](CO)NC(=O)[C@H](CCSC)NC(=O)[C@H](CO)NC(=O)CNC1=O` [CN] (H-GQTHSSGTQSGANQQGLSRGCFGLKLDRIGSMSGLGC-OH; disulfide 21-37), under setting [1], the cGMP response relative to 1 uM CNP22 (%) at 0.01 µM was determined as 12%. Besides, the cGMP response relative to 1 uM CNP22 (%) at 1 µM under setting [2] was 115%.

On to `CC[C@H](C)[C@@H]1NC(=O)[C@H](CCCNC(=N)N)NC(=O)[C@H](CC(=O)O)NC(=O)[C@H](CC(C)C)NC(=O)[C@H](CCCCN)NC(=O)[C@H](CC(C)C)NC(=O)CNC(=O)[C@H](Cc2ccccc2)NC(=O)[C@@H](NC(=O)CNC(=O)[C@H](CCCCN)NC(=O)[C@H](CO)NC(=O)[C@H](CC(C)C)NC(=O)CNC(=O)[C@H](CCC(N)=O)NC(=O)[C@H](CCC(N)=O)NC(=O)[C@H](CC(N)=O)NC(=O)[C@H](C)NC(=O)CNC(=O)[C@H](Cc2c[nH]cn2)NC(=O)[C@@H]2CCCN2C(=O)[C@H](Cc2c[nH]cn2)NC(=O)[C@H](CCC(N)=O)NC(=O)[C@H](CCC(=O)O)NC(=O)[C@H](Cc2c[nH]cn2)NC(=O)[C@H](CO)NC(=O)[C@H](Cc2c[nH]cn2)NC(=O)[C@H](Cc2c[nH]cn2)NC(=O)CN)CSSC[C@@H](C(=O)O)NC(=O)CNC(=O)[C@H](CC(C)C)NC(=O)CNC(=O)[C@H](CO)NC(=O)[C@H](CCSC)NC(=O)[C@H](CO)NC(=O)CNC1=O` [CQ] (H-GHHSHEQHPHGANQQGLSKGCFGLKLDRIGSMSGLGC-OH; disulfide 21-37 (inferred); N-terminus and C-terminus assumed), for which, under “NIH3T3, […]”, the cGMP response relative to 1 uM CNP22 (%) at 0.01 µM worked out at 16% and the cGMP response relative to 1 uM CNP22 (%) at 1 µM is 95%.

In the case of `CC[C@H](C)[C@@H]1NC(=O)[C@H](CCCNC(=N)N)NC(=O)[C@H](CC(=O)O)NC(=O)[C@H](CC(C)C)NC(=O)[C@H](CCCCN)NC(=O)[C@H](CC(C)C)NC(=O)CNC(=O)[C@H](Cc2ccccc2)NC(=O)[C@@H](NC(=O)CNC(=O)[C@H](CCCCN)NC(=O)[C@H](CO)NC(=O)[C@H](CC(C)C)NC(=O)CNC(=O)[C@H](CCC(N)=O)NC(=O)[C@H](CCC(N)=O)NC(=O)[C@H](CC(N)=O)NC(=O)[C@H](C)NC(=O)CNC(=O)[C@H](Cc2c[nH]cn2)NC(=O)[C@@H](NC(=O)[C@H](CC(=O)O)NC(=O)[C@H](Cc2c[nH]cn2)NC(=O)[C@H](CCC(=O)O)NC(=O)[C@H](Cc2c[nH]cn2)NC(=O)[C@@H]2CCCN2C(=O)[C@H](Cc2c[nH]cn2)NC(=O)[C@H](Cc2c[nH]cn2)NC(=O)[C@H](C)NC(=O)CN)[C@@H](C)O)CSSC[C@@H](C(=O)O)NC(=O)CNC(=O)[C@H](CC(C)C)NC(=O)CNC(=O)[C@H](CO)NC(=O)[C@H](CCSC)NC(=O)[C@H](CO)NC(=O)CNC1=O` [CR] (H-GAHHPHEHDTHGANQQGLSKGCFGLKLDRIGSMSGLGC-OH; disulfide 22-38 (inferred); N-terminus and C-terminus assumed), where the note is “NIH3T3, […]”, the cGMP response relative to 1 uM CNP22 (%) at 0.01 µM turned out to be 14 ± 5% and the cGMP response relative to 1 uM CNP22 (%) at 1 µM was found to be 77 ± 12%.

On to `CC[C@H](C)[C@@H]1NC(=O)[C@H](CCCNC(=N)N)NC(=O)[C@H](CC(=O)O)NC(=O)[C@H](CC(C)C)NC(=O)[C@H](CCCCN)NC(=O)[C@H](CC(C)C)NC(=O)CNC(=O)[C@H](Cc2ccccc2)NC(=O)[C@@H](NC(=O)CNC(=O)[C@H](CCCCN)NC(=O)[C@H](CO)NC(=O)[C@H](CC(C)C)NC(=O)CNC(=O)[C@H](CCCCN)NC(=O)[C@H](CCC(N)=O)NC(=O)[C@H](CC(N)=O)NC(=O)[C@H](C)NC(=O)CNC(=O)[C@H](CCCCN)NC(=O)[C@H](Cc2ccc(O)cc2)NC(=O)[C@H](CCCCN)NC(=O)[C@H](CCCNC(=N)N)NC(=O)[C@H](C)NC(=O)[C@H](CC(N)=O)NC(=O)[C@@H]2CCCN2C(=O)[C@H](Cc2c[nH]cn2)NC(=O)[C@H](CCC(=O)O)NC(=O)[C@H](CCC(N)=O)NC(=O)CN)CSSC[C@@H](C(=O)O)NC(=O)CNC(=O)[C@H](CC(C)C)NC(=O)CNC(=O)[C@H](CO)NC(=O)[C@H](CCSC)NC(=O)[C@H](CO)NC(=O)CNC1=O` [CT] (H-GQEHPNARKYKGANQKGLSKGCFGLKLDRIGSMSGLGC-OH; disulfide 22-38 (inferred); N-terminus and C-terminus assumed), for which the cGMP response relative to 1 uM CNP22 (%) at 0.01 µM under setting [1] was determined as 60%. Also, the cGMP response relative to 1 uM CNP22 (%) at 1 µM under setting [2] is 121%.

Take `CC[C@H](C)[C@@H]1NC(=O)[C@H](CCCNC(=N)N)NC(=O)[C@H](CC(=O)O)NC(=O)[C@H](CC(C)C)NC(=O)[C@H](CCCCN)NC(=O)[C@H](CC(C)C)NC(=O)CNC(=O)[C@H](Cc2ccccc2)NC(=O)[C@@H](NC(=O)CNC(=O)[C@H](CCCCN)NC(=O)[C@H](CO)NC(=O)[C@H](CC(C)C)NC(=O)CNC(=O)[C@H](CCC(N)=O)NC(=O)[C@H](CCC(N)=O)NC(=O)[C@H](CC(N)=O)NC(=O)[C@H](C)NC(=O)CNC(=O)[C@H](CCCCN)NC(=O)[C@H](Cc2ccc(O)cc2)NC(=O)[C@H](CCCCN)NC(=O)[C@H](CCCNC(=N)N)NC(=O)[C@H](C)NC(=O)[C@H](CC(N)=O)NC(=O)[C@@H]2CCCN2C(=O)[C@H](Cc2c[nH]cn2)NC(=O)[C@H](CCC(=O)O)NC(=O)[C@H](CCC(N)=O)NC(=O)CN)CSSC[C@@H](C(=O)O)NC(=O)CNC(=O)[C@H](CC(C)C)NC(=O)CNC(=O)[C@H](CO)NC(=O)[C@H](CCSC)NC(=O)[C@H](CO)NC(=O)CNC1=O` [CU] (H-GQEHPNARKYKGANQQGLSKGCFGLKLDRIGSMSGLGC-OH; disulfide 22-38 (inferred); N-terminus and C-terminus assumed): the cGMP response relative to 1 uM CNP22 (%) at 0.01 µM under setting [1] turned out to be 9%. For the same molecule, the cGMP response relative to 1 uM CNP22 (%) at 1 µM under setting [2] was found to be 57%.

On to `CC[C@H](C)[C@@H]1NC(=O)[C@H](CCCNC(=N)N)NC(=O)[C@H](CC(=O)O)NC(=O)[C@H](CC(C)C)NC(=O)[C@H](CCCCN)NC(=O)[C@H](CC(C)C)NC(=O)CNC(=O)[C@@H](Cc2ccccc2)NC(=O)[C@@H](NC(=O)CNC(=O)[C@H](CCCCN)NC(=O)[C@H](CO)NC(=O)[C@H](CC(C)C)NC(=O)CN)CSSC[C@@H](C(=O)O)NC(=O)CNC(=O)[C@H](CC(C)C)NC(=O)CNC(=O)[C@H](CO)NC(=O)[C@H](CCSC)NC(=O)[C@H](CO)NC(=O)CNC1=O` [E], for which, for the setting “NIH3T3, […]”, the cGMP response relative to 1 uM CNP22 (%) at 0.01 µM amounted to 2% and the cGMP response relative to 1 uM CNP22 (%) at 1 µM was 6%.

For `CC[C@H](C)[C@@H]1NC(=O)[C@H](CCCNC(=N)N)NC(=O)[C@H](CC(=O)O)NC(=O)[C@H](CC(C)C)NC(=O)[C@H](CCCCN)NC(=O)[C@H](CC(C)C)NC(=O)CNC(=O)[C@H](Cc2ccc(O)cc2)NC(=O)[C@@H](NC(=O)CNC(=O)[C@H](CCCNC(=N)N)NC(=O)[C@H](CO)NC(=O)[C@H](CC(C)C)NC(=O)CN)CSSC[C@@H](C(=O)O)NC(=O)CNC(=O)[C@H](CC(C)C)NC(=O)CNC(=O)[C@H](CO)NC(=O)[C@H](CCSC)NC(=O)[C@H](CO)NC(=O)CNC1=O` [Z] (H-GLSRGCYGLKLDRIGSMSGLGC-OH; disulfide 6-22 (inferred); N-terminus and C-terminus assumed), the cGMP response relative to 1 uM CNP22 (%) at 0.01 µM under setting [1] stood at 2%. Moreover, the cGMP response relative to 1 uM CNP22 (%) at 1 µM under setting [2] was found to be 18%.

Consider “PEO12-CNP22, K4R: CNP22, K4R conjugated at the N-terminus to PEO12 (PEO12-GLSRGCFGLKLDRIGSMSGLGC; disulfide 6-22 (inferred); UniProt P23582 105-126, looked up, variant K4R)”, for which the “cGMP Response rel. to 1 uM CNP22, 10 nM” value under setting [1] worked out at 13. Further, the “cGMP Response rel. to 1 uM CNP22, 1 uM” value under setting [2] is 44.
